# Experimental data from patent publication US7989464B2, “mGluR1 antagonists as therapeutic agents” (Schering Corporation, priority 2004, dated 2011).
# Target: T1, hmGluR1 receptor (Homo sapiens, UniProt Q13255)
# T1 construct: expressed in transfected cells
# Test: IC50 determination: intracellular calcium mobilization (FLIPR) upon Quisqualate stimulation in CHO cells stably expressing hmGluR1
# Type: cell-based
# Conditions: against Quisqualate 1 μM (EC80), FLIPR calcium mobilization, read-out: IC50 Class
# How it was run: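 CHO cells stably expressing hmGluR1 were kept overnight in DMEM high glucose with GPT and 1 mM pyruvate, then loaded 2 h with Calcium 3 dye.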
# T1 sequence (Q13255 19-1194): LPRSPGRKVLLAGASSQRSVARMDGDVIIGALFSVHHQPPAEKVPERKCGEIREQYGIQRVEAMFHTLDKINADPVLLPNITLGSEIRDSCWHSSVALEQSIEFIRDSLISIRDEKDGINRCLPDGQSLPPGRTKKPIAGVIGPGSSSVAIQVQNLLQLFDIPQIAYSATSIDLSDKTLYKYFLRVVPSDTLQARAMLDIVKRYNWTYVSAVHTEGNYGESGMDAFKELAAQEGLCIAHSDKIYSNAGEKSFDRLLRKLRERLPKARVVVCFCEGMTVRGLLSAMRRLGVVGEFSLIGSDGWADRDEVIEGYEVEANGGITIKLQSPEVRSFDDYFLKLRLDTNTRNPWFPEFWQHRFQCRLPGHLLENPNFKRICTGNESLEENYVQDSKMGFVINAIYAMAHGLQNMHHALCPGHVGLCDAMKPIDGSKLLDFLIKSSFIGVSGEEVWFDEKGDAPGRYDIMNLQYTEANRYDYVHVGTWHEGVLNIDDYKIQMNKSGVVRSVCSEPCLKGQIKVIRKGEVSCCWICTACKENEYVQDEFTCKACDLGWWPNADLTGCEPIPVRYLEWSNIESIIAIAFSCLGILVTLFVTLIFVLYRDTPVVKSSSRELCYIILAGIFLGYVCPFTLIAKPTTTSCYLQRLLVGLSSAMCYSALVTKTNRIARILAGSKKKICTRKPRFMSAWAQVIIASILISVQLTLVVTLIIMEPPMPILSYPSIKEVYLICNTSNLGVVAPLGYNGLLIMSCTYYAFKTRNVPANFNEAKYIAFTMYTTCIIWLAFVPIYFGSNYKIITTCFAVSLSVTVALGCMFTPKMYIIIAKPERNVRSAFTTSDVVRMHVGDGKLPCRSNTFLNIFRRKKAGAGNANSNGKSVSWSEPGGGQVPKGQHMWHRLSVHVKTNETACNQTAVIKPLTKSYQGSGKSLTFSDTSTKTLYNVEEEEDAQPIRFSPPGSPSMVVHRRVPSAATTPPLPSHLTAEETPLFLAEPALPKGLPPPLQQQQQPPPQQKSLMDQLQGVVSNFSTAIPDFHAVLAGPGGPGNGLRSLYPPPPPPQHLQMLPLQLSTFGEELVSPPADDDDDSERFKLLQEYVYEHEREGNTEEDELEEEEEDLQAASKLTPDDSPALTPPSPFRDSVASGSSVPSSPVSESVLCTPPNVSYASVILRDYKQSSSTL
row,Compound,IC50
1,O=c1c2sc3ncnc(Nc4ccccc4)c3c2ncn1-c1ccc2scnc2c1 [95GE],> 1000 nM
2,CCNc1ncnc2sc3c(=O)n(-c4ccc5scnc5c4)cnc3c12 [95BJ],< 50 nM
3,C#CCNc1ncnc2sc3c(=O)n(-c4ccc(F)cc4)cnc3c12 [95ER],< 50 nM
4,C=CCCOc1ccnc2sc3c(=O)n(-c4ccc(Br)cc4)cnc3c12 [66K],150 to 1000 nM
5,COc1ccnc2sc3c(=O)n(-c4ccc(Cl)cc4Cl)cnc3c12 [28FV],> 1000 nM
6,CNc1ccnc2sc3c(=O)n(-c4ccc(OC)cc4F)cnc3c12 [28BK],< 50 nM
7,CNc1ccnc2sc3c(=O)n(-c4cccc(F)c4)cnc3c12 [28CO],< 50 nM
8,CNc1ccnc2sc3c(=O)n(-c4ccc(OC)cc4C)cnc3c12 [28BN],< 50 nM
9,O=c1c2sc3ncnc(NCC(F)(F)F)c3c2ncn1-c1ccc(Br)cc1 [95EE],< 50 nM
10,CC(O)CCNc1ccnc2sc3c(=O)n(-c4ccc(Cl)cc4)cnc3c12 (stereo not drawn) [28HM],< 50 nM
11,CNc1nc(N)c2c(n1)sc1c(=O)n(-c3ccc(C)cc3)cnc12 [71B],> 1000 nM
12,Cc1ccc(-n2cnc3c(sc4nc(C5CC5)nc(N)c43)c2=O)cc1 [71D],150 to 1000 nM
13,Nc1c(Br)cnc2sc3c(=O)n(-c4ccc(Cl)cc4)cnc3c12 [compound 196],< 50 nM
14,COc1ccnc2sc3c(=O)n(-c4ccc5c(c4)OCO5)cnc3c12 [28FY],> 1000 nM
15,CN(C)c1cccc2sc3c(=O)n(-c4cccc(Cl)c4)cnc3c12 [103H],> 1000 nM
16,CCOC(=O)C1CCCC(n2cnc3c(sc4nccc(OC)c43)c2=O)C1 (stereo not drawn) [28EK],> 1000 nM
17,O=c1c2sc3nccc(NCCO)c3c2ncn1-c1ccc(Br)cc1 [28GA],< 50 nM
18,C#CC(C)Nc1ccnc2sc3c(=O)n(-c4ccc(C)cc4)cnc3c12 (stereo not drawn) [28EZ],150 to 1000 nM
19,C#CCOc1ccnc2sc3c(=O)n(-c4ccc(Br)cc4)cnc3c12 [66I],< 50 nM
20,COc1ccc(-n2cnc3c(sc4nccc(OC)c43)c2=O)cc1F [28FX],150 to 1000 nM
21,O=c1c2sc3ncnc(NC4CC4)c3c2ncn1-c1ccc(C2CC2)cc1 [137C],50 to 150 nM
22,C=Cc1ccnc2sc3c(=O)n(-c4ccc(Cl)cc4)cnc3c12 [29E],< 50 nM
23,Cc1ccc(-n2cnc3c(sc4nccc(N5CC[C@@H](O)C5)c43)c2=O)cc1 [28CV],> 1000 nM

row,Compound,IC50
1,CCNc1ccnc2sc3c(=O)n(-c4ccc5c(c4)OCCO5)cnc3c12 [28BY],< 50 nM
2,Cc1ccc(-n2cnc3c(sc4cnnc(NCCCO)c43)c2=O)cc1 [167F],> 1000 nM
3,C=CCNc1nncc2sc3c(=O)n(-c4ccc(C)cc4)cnc3c12 [167C],150 to 1000 nM
4,CNc1c(CNC2CCC2)cnc2sc3c(=O)n(-c4ccc(OC)cc4)cnc3c12 [compound 208],150 to 1000 nM
5,Cc1ccc(-n2cnc3c(sc4ncnc(NCc5cccs5)c43)c2=O)cc1 [95FV],150 to 1000 nM
6,CCNc1ccnc2sc3c(=O)n(-c4ccc(OC)c(F)c4)cnc3c12 [28FZ],< 50 nM
7,CCNc1ccnc2sc3c(=O)n(-c4cccc(F)c4)cnc3c12 [28CQ],< 50 nM
8,C=C(C)CNc1ncnc2sc3c(=O)n(-c4cccc(Cl)c4)cnc3c12 [95FK],50 to 150 nM
9,C#CCNc1ncnc2sc3c(=O)n(-c4ccc5c(c4)OCO5)cnc3c12 [95EO],50 to 150 nM
10,O=c1c2sc3nccc(NC4CC4)c3c2ncn1-c1ccc(Cl)cc1 [28HF],< 50 nM
11,COc1ccc(-n2cnc3c(sc4nccc(N(C)N)c43)c2=O)cc1 [28DO],< 50 nM
12,CN(C)c1cccc2sc3c(=O)n(-c4ccc(Cl)c(Cl)c4)cnc3c12 [103J],> 1000 nM
13,CCN(C)c1ccnc2sc3c(=O)n(-c4ccc(F)cc4)cnc3c12 [28ID],< 50 nM
14,CNc1c(Cl)cnc2sc3c(=O)n(-c4ccc(Cl)cc4)cnc3c12 [compound 200],< 50 nM
15,COCCNc1ccnc2sc3c(=O)n(-c4ccc(Cl)cc4)cnc3c12 [28GK],< 50 nM
16,Cc1ccc(-n2cnc3c(sc4ncnc(NC5CCC5)c43)c2=O)cc1 [95DH],150 to 1000 nM
17,C=CCN(C)c1ccnc2sc3c(=O)n(-c4ccc(Br)cc4)cnc3c12 [28EB],50 to 150 nM
18,O=c1c2sc3ncnc(NC4CC4)c3c2ncn1-c1ccc2occc2c1 [95AV],< 50 nM
19,C#CCNc1ncnc2sc3c(=O)n(-c4ccc(C)cc4)cnc3c12 [95EH],< 50 nM
20,C=CCN(C)c1ccnc2sc3c(=O)n(-c4ccc(Cl)cc4)cnc3c12 [28DZ],< 50 nM
21,CC#Cc1ccnc2sc3c(=O)n(-c4ccc(Cl)cc4)cnc3c12 [compound 177],> 1000 nM
22,C=C(C)CNc1ncnc2sc3c(=O)n(-c4ccc5c(c4)OCCO5)cnc3c12 [95FF],< 50 nM
23,COc1ccnc2sc3c(=O)n(-c4ccc(Cl)cc4)cnc3c12 [28FS],< 50 nM

# Same assay, conditions: against Quisqualate 1 μM (EC80), FLIPR calcium mobilization, read-out: mGluR1 IC50
row,Compound,IC50
1,C=CCN(C)c1ccnc2sc3c(=O)n(-c4ccc(Cl)cc4)cnc3c12 [28DZ],1.08 nM

# Same assay, conditions: against Quisqualate 1 μM (EC80), class symbols, read-out: mGIuR 1 IC50
row,Compound,IC50
1,CN(C)c1ccnc2sc3c(=O)n(-c4nc5ccccc5s4)cnc3c12 [7BQ],150 to 1000 nM
2,CNc1ccnc2sc3c(=O)n(-c4ccccc4)c(C)nc3c12 [113E],< 50 nM
3,COc1ccnc2sc3c(=O)n(C4CCCCC4)cnc3c12 [25A],150 to 1000 nM
4,CN(C)c1c(-c2cccc(C#N)c2)cnc2sc3c(=O)n(C4CCCCC4)cnc3c12 [47A],150 to 1000 nM
5,CN(C)c1ccnc2sc3c(=O)n(NC4CCCCC4)cnc3c12 [60G],< 50 nM
6,CCNc1ccnc2sc3c(=O)n(-c4ccc(O)cc4)cnc3c12 [131B],< 50 nM
7,CCN(C)c1ncnc2sc3c(=O)n(-c4ccc5c(c4)OCC5)cnc3c12 [95K],< 50 nM
8,O=c1c2sc3nccc(N4CCC(O)CC4)c3c2ncn1C1CCCCC1 [28AF],> 1000 nM
9,Cc1ccc(-n2c(C)nc3c(sc4nccc(NCCO)c43)c2=O)cc1 [113N],50 to 150 nM
10,COc1ccc(-c2c(C(C)=O)c(C)nc3sc4c(=O)n(-c5ccccc5)cnc4c23)cc1 [P-12],150 to 1000 nM
11,CCN(C)c1ncnc2sc3c(=O)n(-c4ccc(C(F)(F)F)cc4)cnc3c12 [95Y],< 50 nM
12,Cc1ccc(-n2cnc3c(sc4nccc(N(C)C)c43)c2=O)cn1 [7DF],< 50 nM
13,CCCc1ccc(-n2cnc3c(sc4nccc(N(C)C)c43)c2=O)cc1 [7BK],150 to 1000 nM
14,COc1cccc(-n2cnc3c(sc4nc(N5CCOCC5)c5c(c43)CC(C)(C)OC5)c2=O)c1 [P-4],150 to 1000 nM
15,CN(C)c1ccnc2sc3c(=O)n(CC4CCCCC4)cnc3c12 [15C],< 50 nM
16,CN(C)c1ccnc2sc3c(=O)n(-c4cccc(Cl)c4)cnc3c12 [7L],< 50 nM
17,COc1ccc(-n2cnc3c(sc4nccc(N(C)C)c43)c2=O)cc1 [7BG],< 50 nM
18,CN(C)c1ccnc2c1c1ncn(C3CCCCC3)c(=O)c1n2C [134G],> 1000 nM
19,O=c1c2sc3nccc(NC4CCC4)c3c2ncn1C1CCCCC1 [28W],150 to 1000 nM
20,O=c1c2sc3nccc(NCCc4ccccc4)c3c2ncn1C1CCCCC1 [72F],> 1000 nM
21,COc1ccc(-n2cnc3c(sc4nc(C)cc(N(C)C)c43)c2=O)cc1 [7CJ],50 to 150 nM
22,Cc1ccc(-n2cnc3c(sc4nccc(N(C)C)c43)c2=O)cc1Br [7DQ],< 50 nM
23,CN(C)c1c([N+](=O)[O-])cnc2sc3c(=O)n(C4CCCCC4)cnc3c12 [compound 51],< 50 nM
24,Cc1ccc(-n2cnc3c(sc4nccc(C(N)=O)c43)c2=O)cc1 [compound 76],> 1000 nM
25,COc1cc(-n2cnc3c(sc4nccc(N(C)C)c43)c2=O)cc(OC)c1OC [7AF],> 1000 nM
26,CCN(C)c1ccnc2sc3c(=O)n(-c4ccc(C)cc4)c(C)nc3c12 [113I],< 50 nM

row,Compound,IC50
1,COc1ccc(-c2c(C(C)=O)c(C)nc3sc4c(=O)n(-c5ccc(C)cc5)cnc4c23)cc1 [P-10],150 to 1000 nM
2,C=CCN(C)c1ccnc2sc3c(=O)n(-c4ccc(C)cc4)cnc3c12 [28AC],< 50 nM
3,COc1ccc(Cn2c3nccc(N(C)C)c3c3ncn(-c4ccc(C)cc4)c(=O)c32)cc1 [134H],> 1000 nM
4,O=c1c2sc3nccc(Nc4ccccc4)c3c2ncn1C1CCCCC1 [28H],> 1000 nM
5,Cc1cc(-n2cnc3c(sc4nccc(N(C)C)c43)c2=O)no1 [15AE],50 to 150 nM
6,COc1ccc(-n2cnc3c(sc4nccc(NC5CC5)c43)c2=O)cc1 [28AL],< 50 nM
7,CCNc1ccnc2sc3c(=O)n(-c4ccc5c(c4)OCO5)cnc3c12 [131E],< 50 nM
8,COc1ccnc2sc3c(=O)n(-c4ccc(C)cc4)cnc3c12 [25C],50 to 150 nM
9,Cc1ccccc1-n1cnc2c(sc3nccc(N(C)C)c32)c1=O [7CW],50 to 150 nM
10,CN(C)c1ccnc2sc3c(=O)n(-c4ccc(CO)cc4)cnc3c12 [7AY],< 50 nM
11,CCCCc1nc2c(sc3nccc(N(C)C)c32)c(=O)n1-c1ccc(C)cc1 [116C],150 to 1000 nM
12,CC(=O)Nc1ccnc2sc3c(=O)n(C4CCCCC4)cnc3c12 [73B],> 1000 nM
13,COc1ccc(-n2cnc3c(sc4nccc(N(C)C)c43)c2=O)cc1C [7DJ],< 50 nM
14,Cc1ccc(-n2cnc3c(sc4nccc(N)c43)c2=O)cc1 [72H],< 50 nM
15,CCN(CC)c1ccnc2sc3c(=O)n(C4CCCCC4)cnc3c12 [28J],150 to 1000 nM
16,CNc1ccnc2c1c1ncn(-c3ccc(C)cc3)c(=O)c1n2Cc1ccc(OC)cc1 [134I],> 1000 nM
17,O=c1c2sc3nccc(OS(=O)(=O)C(F)(F)F)c3c2ncn1C1CCCCC1 [27A],> 1000 nM
18,O=c1c2sc3nccc(N4CC[C@H](O)C4)c3c2ncn1C1CCCCC1 [28N],> 1000 nM
19,Cc1ccc(-n2cnc3c(sc4nc(N5CCNCC5)cc(N(C)C)c43)c2=O)cc1 [59B],> 1000 nM
20,Cc1ccc(-n2cnc3c(sc4nccc(NC5CC5)c43)c2=O)cc1 [28AP],< 50 nM
21,C#CCOc1ccnc2sc3c(=O)n(-c4ccc(C)cc4)cnc3c12 [66A],< 50 nM
22,CN(C)c1ccnc2sc3c(=O)n(-c4nncs4)cnc3c12 [15X],> 1000 nM
23,CN(C)c1ccnc2sc3c(=O)n(-c4ccsc4)cnc3c12 [15AA],< 50 nM
24,CN(C)c1ccnc2sc3c(=O)n(-c4ccc5c(c4)oc(=O)n5C)cnc3c12 [7AR],> 1000 nM
25,CN(C)c1ccnc2sc3c(=O)n(-c4ccc(F)cc4)cnc3c12 [7G],< 50 nM
26,CCCN(C)c1ccnc2sc3c(=O)n(C4CCCCC4)cnc3c12 [28AN],< 50 nM
